According to patent publication US10632054B2, “Method for hair frizz reduction” (The Procter & Gamble Company, priority 2015, dated 2020):

Experiments:
[1] = Expert rating of hair switches for frizz, clean feel and greasy feel; conditions: 1% in leave-on composition
Experimental: Additional leave-on treatment compositions are prepared (Tables 1 and 2) according to the procedure described above, which are used to treat hair switches using the procedure described above (amount of 0.10 g of composition per g of hair). The switch is kept at high humidity (above 85%) for 2 hours. Then, ten experts are asked to rate each hair switch in terms of frizz, clean feel, and greasy feel, based on a 5 point scale, 5 being the highest and 1 being the lowest rating. Acceptable values are:
For frizz, less than 2 (lower number corresponds to less frizz);
For no greasy feel less than 3, (lower number corresponds to less greasy feel), and
For clean feel greater than 3 (higher number corresponds to cleaner feel).

[2] = Leave-on treatment, % water reduction by DVS in damaged hair; conditions: 10% propylene glycol
[3] = Soaking treatment, moisture uptake by DVS; conditions: pH 4.2, 40 deg C., at 90% RH
Experimental: The Moisture Control Material is added into a 50:50 ethanol:water solvent at a concentration of 2% w/w and mixed until completely dissolved. The solution pH is adjusted with sodium hydroxide (50% w/w) to a final pH of 4.2. The soaking solution is kept at 40 deg C. for 2 hrs. until a uniform composition is obtained.
One hair switch of natural virgin brown hair is placed in 200 ml of this solution for 2 hours in an oven set at 40° C. After the 2-hour period, the hair is removed, air dried and then tested for moisture uptake using DVS. For the control experiment, a natural brown virgin hair switch of the same weight is placed in a 50:50 ethanol:water solvent and treated under identical conditions.
The % water reduction is calculated as follows: […]
Hair soaked in active solution of pH 4.2 for different interval of time from 10 min to 2 hrs at 40 deg C. Hair Switches were air dried and prepared for % water reduction measurement using DVS vs. control (no active).

With O=C(O)c1ccc(O)cc1O [2,4-Dihydroxybenzoic acid] as the compound, how does the “Hair switch rating result in words (frizz, clean feel, greasy feel)” value (from here on “Hair switch rating result in words”) [1] read?
The value was “provide frizz protection with clean feel and without greasy feel negative”.

Which “Hair switch rating result in words” value [1] does the source give for CCCCCCCCC(CO)CCCCCC (stereo not shown) [2-Hexyl-1-decanol] here?
Its value is “provide frizz protection with clean feel and without greasy feel negative”.

Which “Hair switch rating result in words” value [1] does the source give for O=C(OCCO)c1ccccc1O [2-Hydroxyethyl salicylate] here?
Its value is “provide frizz protection with clean feel and without greasy feel negative”.

For O=S(=O)(O)c1ccc(O)cc1 [4-Hydroxybenzenesulphonic acid], which “Hair switch rating result in words” value [1] is on record?
Its value is “provide frizz protection with clean feel and without greasy feel negative”.

For O=C(O)c1cc(Cl)ccc1O [5-Chlorosalicylic acid], which “increase in % water reduction as measured by DVS versus without propylene glycol” value [2] is on record?
Its value is ~4 times.

What about the “Hair switch rating result in words” value [1] of the same compound?
Its value is “provide frizz protection with clean feel and without greasy feel negative”.

And the “% water reduction vs. control” value ([3]; 10 min soaking)?
The value was 9.6%.

What about the “% water reduction vs. control” value ([3]; 20 mins soaking) of the same compound?
Its value is 14.8%.

What about the “% water reduction vs. control” value ([3]; 30 mins soaking) of the same compound?
The value was 19%.

And the “% water reduction vs. control” value ([3]; 1 hr soaking)?
The value was 26%.

And the “% water reduction vs. control” value ([3]; 2 hr soaking)?
The value was 30%.

For CC(C)CCCCCCCCCCCCCCCOC(=O)CCCCCCCCCCCCCCC(C)C [Isostearyl isostearate], which “Hair switch rating result in words” value [1] is on record?
Its value is “provide frizz protection with clean feel and without greasy feel negative”.

For O=C(O)c1ccccc1O [Salicylic acid], which “Hair switch rating result in words” value [1] is on record?
Its value is “provide frizz protection with clean feel and without greasy feel negative”.
